Test results taken from US12527819B2, “Method of preventing or treating viral infections” (Vector Vitale IP LLC, priority 2020, dated 2026).
≈ marks a conversion by molar mass, not a printed value. Where two headings read alike, the source gives them in different places.

Tests used:
in vitro = conditions: dog
MDCK cells = system: MDCK cells; parameters: unit not given beside the values
MDBK cells = test: Mitotic regime of MDBK cells (cytological analysis); format: cell-based, bovine; conditions: dilution 1:1000; for Abnormal mitoses MDBK / Mitotic activity MDBK: relative to tissue control
Description: Cytological analysis was performed after fixing the cells grown on cover-glasses in Shabadash's fluid (9 parts of copper nitrate in ethyl alcohol+1 part of formalin) for 30 minutes. The samples for the cytological analysis were stained using hematoxylin and eosin stain according to the generally accepted procedure.
The mitotic index was calculated by analyzing 3000-10000 observed cells and was expressed in ppm (‰), which was the number of mitoses per 1000 cells. At the same time, the presence of pathological forms of mitosis was determined. A classification developed by V. N. Blyumkin was used for the analysis of pathological mitoses.
The examination of cytological preparations was carried out with lenses ×40 and ×100, eyepiece ×10 in a Standard 20, Zeiss microscope.
The experiment was conducted on the culture of MDBK cells that were treated with various options of the drugs. After 24 hours of contact the cells were fixed and cytological preparations were made using a standard technique.
The culture of MDBK cells was selected for the study. The cells were treated with various drug options at concentrations nontoxic for cells. After 24 hours of contact, the cells were fixed and cytological preparations were prepared according to a conventional technique.

herpes simplex virus = test: Light water at various doses in mice infected intracerebrally with herpes virus; format: in vivo; conditions: 14 day; for Number of survived mice: 8 mice
Description: Thus 50, 100 and 200 μl per mouse were administered to the infected animals.
Groups consisting of 8 mice each were included in the experiment. […] The first administration of drugs was 24 hours later. After infection, there were 4 injections in total given every other day. Uninfected mice who received intracerebral injections of 30 μl of normal saline solution and the mice infected with HSV served as a control.

[1] = system: influenza virus A/FM/1/47 (H1N1); format: in vivo, BALB/c mice; conditions: reference drug, 1000 μg/kg
herpes virus = test: Herpes virus meningoencephalitis model in mice, treatment regimen; conditions: dose 100 μg
Description: The anti-herpes activity of zinc preparations was studied in the model of herpes virus meningoencephalitis in BALB/c mice (18-20 g in weight) with their intracerebral administration at a dose of 0.03 ml. In all the experimental groups, the drug was administered intraperitoneally at a dose of 0.1 ml. […] 4B—Zn-64 citrate in deuterium-depleted water—3 mg/ml • 2. 4B-2—Zn citrate in deuterium-depleted water—3 mg/ml • 3. 8B—Zn-64 glutamate in deuterium-depleted water—3 mg/ml • 4. 8B-2—Zn glutamate in deuterium-depleted water—3 mg/ml • 5. 9B—Zn-64 glycine-methionine in deuterium-depleted water—1 mg/ml • 6. 9B-2—Zn glycine-methionine in deuterium-depleted water—1 mg/ml
The drug activity was evaluated by comparing the lethality in the experimental and control groups. The following factors were taken into account: • percentage of animals that died • multiplicity of protection (MP)—multiplicity of decrease in the number of dead mice in the experimental group compared to the control group • efficacy index (EI) of the drugs was determined using the following formula:

Description for Raji cells: A colorimetric assay using MTT 3-(4,5-dimethylthiazol-2-yl)-2,5-diphenyltetrazolium bromide (Sigma, USA) is based on the features of functioning of the dehydrogenase system of mitochondria of living cells which, under normal conditions, reprocess the artificial substrate MTT into a formazan that can be accounted spectrophotometrically.
The MTT substrate (Sigma, USA) was dissolved in sterile phosphate buffered saline (pH 7.2) at room temperature to a concentration of 5 mg/ml. The filtered MTT solution in a volume of 20 μl was added to the wells of a 96-well plate and incubated with the cells for 2 to 4 hours at 37° C. After incubation, the medium was removed, and 150 μl of 96° ethanol was added to the cells to dissolve the formazan crystals. The optical density of the solutions was determined spectrophotometrically using a Multican FC reader (“Thermo Scientific” (USA)) at a wavelength of 540 nm.
Cytotoxicity of the preparations under study was assessed using the MTT (3-(4,5-dimethylthiazol-2-yl)-2-5-diphenyltetrozolium bromide) assay, one of the commonly used colorimetric assay (Sigma USA). This assay determined cell viability through determination of mitochondrial function of cells by measuring activity of mitochondrial enzymes such as succinate dehydrogenase. In this assay, MTT is reduced to a purple formazan by NADH, which can be quantified spectrophotometrically. […] The purple color was measured at an excitation wavelength of 540 nm using a Thermo Scientific (USA) reader.

Which results are given for `N[C@@H](CC(=O)O)C(=O)O` [9a, aspartic acid]?
CC50 at 5 days (in vitro): 42 µg/mL (≈ 316 µM); CC50 as dilution (MDCK cells): 1/80

With `Cc1ccc(S(=O)(=O)Nc2ccccc2NC(=O)c2ccccc2)cc1` [10-3, n-n-toluenesulfonyl-n-benzoyl-o-phenylenediamine] as the compound, how does the “Abnormal mitoses in %” value (MDBK cells; MDBK, 24 h) read?
The value was 25.0%.

What about the “Mitotic activity in %” value (MDBK cells; MDBK, 24 h) of the same compound?
Its value is 16.0%.

What about the “Abnormal mitoses MDBK” value (MDBK cells) of the same compound?
Its value is 1.12.

What about the “Mitotic activity MDBK” value (MDBK cells) of the same compound?
The value was 0.88.

And the “viability of Raji cells (MTT reading)” value (Raji cells; 0.9 μg/ml)?
The value was 1.287.

What about the “viability of Raji cells (MTT reading)” value (Raji cells; 9 μg/ml) of the same compound?
The value was 1.235.

What about the “viability of Raji cells (MTT reading)” value (Raji cells; 18 μg/ml) of the same compound?
Its value is 0.1791.

And the “viability of Raji cells (MTT reading)” value (Raji cells; 90 μg/ml)?
The value was 0.152.

What about the CC50 (Raji cells; Raji cells, MTT) of the same compound?
Its CC50 is 33.46 µg/mL (≈ 91.3 µM).

With `N[C@@H](CCC(=O)O)C(=O)O` [10a, glutamic acid] as the compound, how does the “Abnormal mitoses in %” value (MDBK cells; MDBK, 24 h) read?
The value was 22.2%.

And the “Abnormal mitoses MDBK” value (MDBK cells)?
The value was 1.0.

What about the “Mitotic activity MDBK” value (MDBK cells) of the same compound?
The value was 0.77.

And the CC50 as dilution (MDCK cells)?
The CC50 as dilution was 1:160.

With `Nc1nc2c(ncn2COCCO)c(=O)[nH]1` [Aciclovir, Acyclovir, reference compound] as the compound, how does the “MP (%)” value (herpes simplex virus; reference, dose not given) read?
The value was 25%.

What about the “Number of survived mice” value (herpes simplex virus; reference, dose not given) of the same compound?
The value was 2.

Which results are given for `O=C(O)CC(O)(CC(=O)O)C(=O)O` [No 8a, citric acid]?
CC50 at 5 days (in vitro): 14 µg/mL (≈ 72.9 µM); CC50 as dilution (MDCK cells): 1/160

With `CCOC(=O)C1=C[C@@H](OC(CC)CC)[C@H](NC(C)=O)[C@@H](N)C1` [Tamiflu] as the compound, how does the “EI (efficacy index)” value [1] read?
Its value is 70.

What about the “Inhibition of infectious titer in cerebral tissue in lg TCD50” value [1] of the same compound?
The value was 2.5 lg TCD50.

And the “Number of mice that died, %” value ([1]; 10 mice)?
Its value is 30.0%.

What about the “Number of mice that died, total” value ([1]; 10 mice) of the same compound?
The value was 3.

Which results are given for Deuterium-depleted water?
MP (%) (herpes simplex virus; 50 μl/mouse): 38%; Number of survived mice (herpes simplex virus; 50 μl/mouse, 4 injections): 3; MP (%) (herpes simplex virus; 100 μl/mouse): 50%; Number of survived mice (herpes simplex virus; 100 μl/mouse, 4 injections): 4; MP (%) (herpes simplex virus; 200 μl/mouse): 75%; Number of survived mice (herpes simplex virus; 200 μl/mouse, 4 injections): 6; EI (efficacy index) (herpes virus): 50.0; Inhibition of infectious titer in cerebral tissue in lg TCD50 (herpes virus): 2.0 lg TCD50; MP (multiplicity of protection) (herpes virus): 2.0; Number of mice that died, % (herpes virus; 10 mice): 50.0%; Number of mice that died, total (herpes virus; 10 mice): 5
